Tested on: IL-6 mediated proliferation of B9.9 cells
Experiment: IL-6-dependent B9.9 cell proliferation assay
Assay type: cell-based, mouse
Conditions: peptide concentration = 250 μM
Text: Peptides according to the invention were synthesized by the solid phase peptide synthesis method (Merrifield, J. Am. Chem. Soc. 85:2149, 1963). The amino acid numbering of peptides derived from the IL-6 receptor (IL-6R) sequence is based on the published sequence of Yamasaki, et al, (Science 241:825, 1988), and numbering of peptides derived from the IL-6 sequence is based on the sequence of IL-6 as published by Hirano, et al. (Nature 324:73, 1986). The numbering refers to the position of the amino acids in the mature protein after excision of the signal sequence. Activity was established in an IL-6-dependent B9.9 cell proliferation assay as described hereunder.
IL-6 antagonist activity of the subject peptides was measured using the IL-6 dependent B9.9 hybridoma cell line as described in Brakenhoff et al., J. Immunol. […]
1×10^4 cells were cultured in presence of 4-fold serial dilutions (1:16 to 1:65,536) of F-IL-6 in RPMI supplemented with 10% fetal calf serum, 2 mM L-glutamine, and 5 ×10^-5 M 2-mercaptoethanol in flat bottom microtiter plates. After 2 days the cells were incubated for 4 hours with 3-(4,5-dimethylthiazol-2-yl)-diphenyl tetrazolium bromide (MTT) and the absorbance was measured at 570-650 nm as described in Mosmann, J. Immunol. […] One unit of IL-6 was defined as the amount of IL-6 required to obtain half maximal proliferation and was calculated by probit analysis. […]

| Substance | Percent Inhibition of IL-6 mediated proliferation of B9.9 cells [%] |
| --- | --- |
| Ac-GQLRAQEEFGQGE-NH2 [Ac-GQLRAQEEFGQGE-NH2] | 92 ± 6 |
| GAAAENNNLNLP | 29 ± 19 |
